Results: the supplement of paper PMC10307832

Tests used:
Experiment in all cases: relative viability (nuclei count vs DMSO), 5 days (fraction); higher = more cells survive
H3255 = tested on: H3255
Procedure, shortened: (§1)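 After 5 days of treatment, lung cancer cells in 1536-well plates were fixed and stained in a single step (final 0.05% Triton X-100, 1% formaldehyde, 1 ug/ml Hoechst) and their nuclei counted on 4× images. Treatment had been applied by pin tool the day after seeding as one drug alone or as a fixed anchor-drug dose with five library-drug doses (not always all listed) in √10 steps. Relative viability is the nuclei count of treated wells divided by that of vehicle wells, and values are medians of duplicate plates.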

PC-14 = tested on: PC-14
Procedure, shortened: as §1

NCI-H2023 = tested on: NCI-H2023
Procedure, shortened: as §1

SW 1573 = tested on: SW 1573
Procedure, shortened: as §1

LXF-289 = tested on: LXF-289
Procedure, shortened: as §1

NCI-H322M = tested on: NCI-H322M
Procedure, shortened: as §1

NCI-H2126 = tested on: NCI-H2126
Procedure, shortened: as §1

SK-LU-1 = tested on: SK-LU-1
Procedure, shortened: as §1

NCI-H2009 = tested on: NCI-H2009
Procedure, shortened: as §1

EMC-BAC-2 = tested on: EMC-BAC-2
Procedure, shortened: as §1

NCI-H2085 = tested on: NCI-H2085
Procedure, shortened: as §1

NCI-H1993 = tested on: NCI-H1993
Procedure, shortened: as §1

NCI-H2342 = tested on: NCI-H2342
Procedure, shortened: as §1

NCI-H1563 = tested on: NCI-H1563
Procedure, shortened: as §1

NCI-H2347 = tested on: NCI-H2347
Procedure, shortened: as §1

EPLC-272H = tested on: EPLC-272H
Procedure, shortened: as §1

NCI-H1650 = tested on: NCI-H1650
Procedure, shortened: as §1

NCI-H1915 = tested on: NCI-H1915
Procedure, shortened: as §1

LCLC-97TM1 = tested on: LCLC-97TM1
Procedure, shortened: as §1

NCI-H647 = tested on: NCI-H647
Procedure, shortened: as §1

NCI-H661 = tested on: NCI-H661
Procedure, shortened: as §1

HOP-62 = tested on: HOP-62
Procedure, shortened: as §1

`CC1(C)CCC(c2ccc(Cl)cc2)=C(CN2CCN(c3ccc(C(=O)NS(=O)(=O)c4ccc(N[C@H](CCN5CCOCC5)CSc5ccccc5)c(S(=O)(=O)C(F)(F)F)c4)cc3)CC2)C1` [Navitoclax] + Nc1nc2[nH]cc(CCc3ccc(C(=O)N[C@@H](CCC(=O)O)C(=O)O)cc3)c2c(=O)[nH]1 [Pemetrexed] (partner 0.2 µM) showed a relative viability (H3255; first compound 0.005 µM) of 0.664, a relative viability (H3255; first compound 0.01581 µM) of 0.648 and a relative viability (H3255; first compound 0.05 µM) of 0.571. For the same compound, the relative viability (H3255; first compound 0.1581 µM) was 0.581, the relative viability (H3255; first compound 0.5 µM) was 0.545 and the relative viability (PC-14; first compound 0.005 µM) was 0.133. The relative viability (PC-14; first compound 0.01581 µM) was 0.118, the relative viability (PC-14; first compound 0.05 µM) was 0.136 and the relative viability (PC-14; first compound 0.1581 µM) was 0.108. It also gave a relative viability (PC-14; first compound 0.5 µM) of 0.105, a relative viability (NCI-H2023; first compound 0.005 µM) of 0.229 and a relative viability (NCI-H2023; first compound 0.01581 µM) of 0.236. It also gave a relative viability (NCI-H2023; first compound 0.05 µM) of 0.258, a relative viability (NCI-H2023; first compound 0.1581 µM) of 0.214 and a relative viability (NCI-H2023; first compound 0.5 µM) of 0.201. For the same compound, the relative viability (SW 1573; first compound 0.005 µM) was 0.925, the relative viability (SW 1573; first compound 0.01581 µM) was 0.773 and the relative viability (SW 1573; first compound 0.05 µM) was 0.787. It also gave a relative viability (SW 1573; first compound 0.1581 µM) of 0.751, a relative viability (SW 1573; first compound 0.5 µM) of 0.801 and a relative viability (LXF-289; first compound 0.005 µM) of 0.85. It also gave a relative viability (LXF-289; first compound 0.01581 µM) of 0.914, a relative viability (LXF-289; first compound 0.05 µM) of 0.865 and a relative viability (LXF-289; first compound 0.1581 µM) of 0.926. For the same compound, the relative viability (LXF-289; first compound 0.5 µM) was 0.852, the relative viability (NCI-H322M; first compound 0.005 µM) was 0.661 and the relative viability (NCI-H322M; first compound 0.01581 µM) was 0.651. It also gave a relative viability (NCI-H322M; first compound 0.05 µM) of 0.65, a relative viability (NCI-H322M; first compound 0.1581 µM) of 0.651 and a relative viability (NCI-H322M; first compound 0.5 µM) of 0.649. It also gave a relative viability (NCI-H2126; first compound 0.005 µM) of 0.667, a relative viability (NCI-H2126; first compound 0.01581 µM) of 0.696 and a relative viability (NCI-H2126; first compound 0.05 µM) of 0.671. The relative viability (NCI-H2126; first compound 0.1581 µM) was 0.602, the relative viability (NCI-H2126; first compound 0.5 µM) was 0.624 and the relative viability (SK-LU-1; first compound 0.005 µM) was 0.945. The relative viability (SK-LU-1; first compound 0.01581 µM) was 1.01, the relative viability (SK-LU-1; first compound 0.05 µM) was 0.967 and the relative viability (SK-LU-1; first compound 0.1581 µM) was 0.947. For the same compound, the relative viability (SK-LU-1; first compound 0.5 µM) was 0.819, the relative viability (NCI-H2009; first compound 0.005 µM) was 0.997 and the relative viability (NCI-H2009; first compound 0.01581 µM) was 1.03. The relative viability (NCI-H2009; first compound 0.05 µM) was 1.03, the relative viability (NCI-H2009; first compound 0.1581 µM) was 1.04 and the relative viability (NCI-H2009; first compound 0.5 µM) was 1.01. For the same compound, the relative viability (EMC-BAC-2; first compound 0.005 µM) was 0.433, the relative viability (EMC-BAC-2; first compound 0.01581 µM) was 0.437 and the relative viability (EMC-BAC-2; first compound 0.05 µM) was 0.408. For the same compound, the relative viability (EMC-BAC-2; first compound 0.1581 µM) was 0.423, the relative viability (EMC-BAC-2; first compound 0.5 µM) was 0.419 and the relative viability (NCI-H2085; first compound 0.005 µM) was 0.812. It also gave a relative viability (NCI-H2085; first compound 0.01581 µM) of 1.2, a relative viability (NCI-H2085; first compound 0.05 µM) of 0.852 and a relative viability (NCI-H2085; first compound 0.1581 µM) of 0.931. It also gave a relative viability (NCI-H2085; first compound 0.5 µM) of 0.894, a relative viability (NCI-H1993; first compound 0.005 µM) of 0.616 and a relative viability (NCI-H1993; first compound 0.01581 µM) of 0.701. The relative viability (NCI-H1993; first compound 0.05 µM) was 0.474, the relative viability (NCI-H1993; first compound 0.1581 µM) was 0.653 and the relative viability (NCI-H1993; first compound 0.5 µM) was 0.677. For the same compound, the relative viability (NCI-H2342; first compound 0.005 µM) was 0.818, the relative viability (NCI-H2342; first compound 0.01581 µM) was 0.81 and the relative viability (NCI-H2342; first compound 0.05 µM) was 0.805. It also gave a relative viability (NCI-H2342; first compound 0.1581 µM) of 0.719, a relative viability (NCI-H2342; first compound 0.5 µM) of 0.763 and a relative viability (NCI-H1563; first compound 0.005 µM) of 0.656. It also gave a relative viability (NCI-H1563; first compound 0.01581 µM) of 0.739, a relative viability (NCI-H1563; first compound 0.05 µM) of 0.608 and a relative viability (NCI-H1563; first compound 0.1581 µM) of 0.805. For the same compound, the relative viability (NCI-H1563; first compound 0.5 µM) was 0.861, the relative viability (NCI-H2347; first compound 0.005 µM) was 0.443 and the relative viability (NCI-H2347; first compound 0.01581 µM) was 0.439. For the same compound, the relative viability (NCI-H2347; first compound 0.05 µM) was 0.411, the relative viability (NCI-H2347; first compound 0.1581 µM) was 0.427 and the relative viability (NCI-H2347; first compound 0.5 µM) was 0.437. The relative viability (EPLC-272H; first compound 0.005 µM) was 0.312, the relative viability (EPLC-272H; first compound 0.01581 µM) was 0.268 and the relative viability (EPLC-272H; first compound 0.05 µM) was 0.347. The relative viability (EPLC-272H; first compound 0.1581 µM) was 0.354, the relative viability (EPLC-272H; first compound 0.5 µM) was 0.343 and the relative viability (NCI-H1650; first compound 0.005 µM) was 0.365. For the same compound, the relative viability (NCI-H1650; first compound 0.01581 µM) was 0.412, the relative viability (NCI-H1650; first compound 0.05 µM) was 0.298 and the relative viability (NCI-H1650; first compound 0.1581 µM) was 0.347. The relative viability (NCI-H1650; first compound 0.5 µM) was 0.334, the relative viability (NCI-H1915; first compound 0.005 µM) was 0.495 and the relative viability (NCI-H1915; first compound 0.01581 µM) was 0.504. The relative viability (NCI-H1915; first compound 0.05 µM) was 0.571, the relative viability (NCI-H1915; first compound 0.1581 µM) was 0.439 and the relative viability (NCI-H1915; first compound 0.5 µM) was 0.401. For the same compound, the relative viability (LCLC-97TM1; first compound 0.005 µM) was 0.182, the relative viability (LCLC-97TM1; first compound 0.01581 µM) was 0.191 and the relative viability (LCLC-97TM1; first compound 0.05 µM) was 0.158. For the same compound, the relative viability (LCLC-97TM1; first compound 0.1581 µM) was 0.156, the relative viability (LCLC-97TM1; first compound 0.5 µM) was 0.204 and the relative viability (NCI-H647; first compound 0.005 µM) was 0.166. The relative viability (NCI-H647; first compound 0.01581 µM) was 0.175, the relative viability (NCI-H647; first compound 0.05 µM) was 0.163 and the relative viability (NCI-H647; first compound 0.1581 µM) was 0.14. It also gave a relative viability (NCI-H647; first compound 0.5 µM) of 0.128, a relative viability (NCI-H661; first compound 0.005 µM) of 0.936 and a relative viability (NCI-H661; first compound 0.01581 µM) of 0.958. It also gave a relative viability (NCI-H661; first compound 0.05 µM) of 0.9, a relative viability (NCI-H661; first compound 0.1581 µM) of 0.883 and a relative viability (NCI-H661; first compound 0.5 µM) of 0.876. For the same compound, the relative viability (HOP-62; first compound 0.005 µM) was 0.326, the relative viability (HOP-62; first compound 0.01581 µM) was 0.299 and the relative viability (HOP-62; first compound 0.05 µM) was 0.323. It also gave a relative viability (HOP-62; first compound 0.1581 µM) of 0.27 and a relative viability (HOP-62; first compound 0.5 µM) of 0.27.
